Reference: ChEMBL document CHEMBL4184305, “Inhibition of histone lysine methyltransferases G9a and GLP by ejection of structural Zn(II)” (Bioorg Med Chem Lett, 2018)
The source made the active and inactive calls. The rule behind the calls is not given here.

Legend:
[1] = molecular target: T1, Histone-lysine N-methyltransferase EHMT1 (Homo sapiens, UniProt Q9H9B1); assay: (§1) Inhibition of wild type recombinant human histone lysine methyltransferase GLP (951 to 1235 residues) expressed in Escherichia coli Rosetta BL21 DE3 PlysS using ARTKQTARKSTGGKA as substrate preincubated for 5 mins followed by substrate/SAM addition measured after 60 mins by MALDI-TOF MS analysis
T1 sequence (Q9H9B1 whole entry): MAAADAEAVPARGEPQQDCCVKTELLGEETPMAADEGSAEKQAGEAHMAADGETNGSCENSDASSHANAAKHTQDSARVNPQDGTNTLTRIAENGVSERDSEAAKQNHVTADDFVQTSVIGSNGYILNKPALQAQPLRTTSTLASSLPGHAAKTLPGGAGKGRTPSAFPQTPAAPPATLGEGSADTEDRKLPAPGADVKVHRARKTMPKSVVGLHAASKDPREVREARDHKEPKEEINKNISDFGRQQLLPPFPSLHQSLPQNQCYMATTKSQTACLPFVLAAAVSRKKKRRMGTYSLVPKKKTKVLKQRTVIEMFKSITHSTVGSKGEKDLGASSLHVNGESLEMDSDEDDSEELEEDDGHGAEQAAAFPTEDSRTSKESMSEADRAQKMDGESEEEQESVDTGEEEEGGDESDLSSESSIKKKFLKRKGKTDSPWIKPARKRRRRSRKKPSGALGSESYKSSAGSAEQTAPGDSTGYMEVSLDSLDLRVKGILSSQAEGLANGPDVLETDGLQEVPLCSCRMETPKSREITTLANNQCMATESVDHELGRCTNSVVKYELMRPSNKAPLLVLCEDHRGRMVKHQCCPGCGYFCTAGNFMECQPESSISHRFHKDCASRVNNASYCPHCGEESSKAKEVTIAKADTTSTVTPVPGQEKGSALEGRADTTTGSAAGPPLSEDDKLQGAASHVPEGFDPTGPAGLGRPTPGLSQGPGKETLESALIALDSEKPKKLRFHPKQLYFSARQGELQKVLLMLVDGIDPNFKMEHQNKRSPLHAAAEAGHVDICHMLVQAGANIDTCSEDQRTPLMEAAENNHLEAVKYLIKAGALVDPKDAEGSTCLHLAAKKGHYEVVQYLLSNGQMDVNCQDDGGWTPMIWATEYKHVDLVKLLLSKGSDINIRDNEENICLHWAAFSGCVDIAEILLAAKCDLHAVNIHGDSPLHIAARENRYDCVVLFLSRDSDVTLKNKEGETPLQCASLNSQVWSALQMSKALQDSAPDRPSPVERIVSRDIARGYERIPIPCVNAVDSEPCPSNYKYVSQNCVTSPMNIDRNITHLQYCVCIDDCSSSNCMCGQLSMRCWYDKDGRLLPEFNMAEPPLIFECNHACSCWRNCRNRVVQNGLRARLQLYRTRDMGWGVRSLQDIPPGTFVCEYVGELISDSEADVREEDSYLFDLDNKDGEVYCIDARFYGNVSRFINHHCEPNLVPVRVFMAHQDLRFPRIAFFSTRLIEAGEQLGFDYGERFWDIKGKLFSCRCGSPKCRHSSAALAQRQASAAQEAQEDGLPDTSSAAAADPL

[2] = molecular target: T2, Histone-lysine N-methyltransferase EHMT1 (Homo sapiens) (UniProt Q9H9B1); assay: Inhibition of wild type recombinant human histone lysine methyltransferase GLP (951 to 1235 residues) expressed in Escherichia coli Rosetta BL21 DE3 PlysS assessed as zinc ions ejection from Cys4-Zn finger at 100 uM by FluoZin-3 based fluorescence assay
T2 sequence (whole entry): T1 sequence (Q9H9B1 whole entry)

[3] = molecular target: T3, Histone-lysine N-methyltransferase EHMT2 (Homo sapiens) (UniProt Q96KQ7); assay: Induction of wild type recombinant human histone lysine methyltransferase G9a (913 to 1193 residues) protein unfolding at 100 uM by circular dichroism analysis
T3 sequence (whole entry): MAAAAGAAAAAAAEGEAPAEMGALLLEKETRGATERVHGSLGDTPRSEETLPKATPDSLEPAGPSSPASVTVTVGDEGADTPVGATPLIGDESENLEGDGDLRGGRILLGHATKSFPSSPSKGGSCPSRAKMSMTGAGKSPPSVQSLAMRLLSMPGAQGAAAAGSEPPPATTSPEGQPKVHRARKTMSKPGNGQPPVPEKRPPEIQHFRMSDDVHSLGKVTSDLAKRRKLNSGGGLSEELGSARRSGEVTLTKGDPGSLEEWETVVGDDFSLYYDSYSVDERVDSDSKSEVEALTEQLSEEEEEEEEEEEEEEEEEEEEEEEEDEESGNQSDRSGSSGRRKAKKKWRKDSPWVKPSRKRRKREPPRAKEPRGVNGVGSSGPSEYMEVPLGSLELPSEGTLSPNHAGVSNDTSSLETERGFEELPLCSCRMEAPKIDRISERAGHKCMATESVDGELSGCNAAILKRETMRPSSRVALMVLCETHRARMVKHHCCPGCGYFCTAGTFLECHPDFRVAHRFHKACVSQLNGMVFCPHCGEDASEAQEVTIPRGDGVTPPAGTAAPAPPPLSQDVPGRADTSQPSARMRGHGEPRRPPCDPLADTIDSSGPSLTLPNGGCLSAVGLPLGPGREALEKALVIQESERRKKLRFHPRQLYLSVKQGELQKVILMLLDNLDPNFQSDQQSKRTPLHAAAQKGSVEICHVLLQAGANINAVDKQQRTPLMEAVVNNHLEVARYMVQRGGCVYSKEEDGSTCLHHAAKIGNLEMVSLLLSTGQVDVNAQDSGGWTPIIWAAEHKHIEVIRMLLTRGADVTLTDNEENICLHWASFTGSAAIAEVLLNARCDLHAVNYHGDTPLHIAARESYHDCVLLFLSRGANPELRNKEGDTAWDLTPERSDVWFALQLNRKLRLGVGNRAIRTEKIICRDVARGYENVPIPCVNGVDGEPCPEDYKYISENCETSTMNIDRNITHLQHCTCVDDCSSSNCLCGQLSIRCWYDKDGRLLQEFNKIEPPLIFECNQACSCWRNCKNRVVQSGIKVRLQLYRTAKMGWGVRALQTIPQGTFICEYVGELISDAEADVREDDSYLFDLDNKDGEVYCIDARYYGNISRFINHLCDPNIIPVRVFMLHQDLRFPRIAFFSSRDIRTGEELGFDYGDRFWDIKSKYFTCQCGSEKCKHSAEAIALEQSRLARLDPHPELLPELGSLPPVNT

[4] = molecular target: T2, Histone-lysine N-methyltransferase EHMT1 (Homo sapiens); assay: as §1, with “PlysS at 10 uM” for “PlysS”
[5] = molecular target: T3, Histone-lysine N-methyltransferase EHMT2 (Homo sapiens); assay: as §1, with “G9a (913” for “GLP (951”, “1193” for “1235”, “PlysS at 100 uM” for “PlysS”
[6] = molecular target: T3, Histone-lysine N-methyltransferase EHMT2 (Homo sapiens); assay: as §1, with “G9a (913” for “GLP (951”, “1193” for “1235”, “PlysS at 10 uM” for “PlysS”

Structure (SMILES) | IC50 [1] | inhibition [2] | Activity [3] | inhibition [4] | inhibition [5] | inhibition [6]
CCN(CC)C(=S)SSC(=S)N(CC)CC | 1600 nM | Active | Active | inactive | > 50% | inactive
O=c1c2ccccc2[se]n1-c1ccccc1 [EBSELEN] | 730 nM | Active | Active | inactive | > 50% | inactive
